Columns and labels:
[1] = tested on: VEGF secretion by myeloma cells and BMSCs; experiment: VEGF ELISA, MM cells and BMSCs alone and in co-culture; format: cell-based, human; details: 500 nM for 24 hrs
Procedure: (§1) Flow cytometric analyses for IGF-1R, and IGF-2R were performed as previously described on a EPICS-XL-MCL flow cytometer (Beckman Coulter). Previously described protocols were applied for immunoblotting analyses; TRAP telomerase activity assay; 20S proteasome chymotryptic activity assay; DNA binding activity ELISAs for quantitative assessments of NF-κB and HIF-1a transcriptional activities. VEGF and IGF-1 ELISAs were performed according to manufacturer's instructions (R&D Systems, Minneapolis, Minn.).

primary MM tumor cells = experiment: MTT survival assay, short-term culture of primary MM tumor cells; format: cell-based, human; details: all primary patient samples tested
From the text: The dexamethasone (Dex)-sensitive parental line MM-1S and its Dex-resistant subline MM-1R cells were kindly provided by Dr Steven Rosen (Northwestern University, Chicago, Ill.); the chemo-sensitive parental MM cell line RPMI-8226/S, and its chemo-resistant sublines RPMI-8226/Dox40 (doxorubicin-resistant), RPMI-8226/MR20 (mitoxantrone-resistant), RPMI-8226/LR5 (melphalan-resistant) cells were kindly provided by Dr William Dalton (lee Moffitt Cancer Center, Tampa, Fla.); the OCI-My5 cells were provided by Dr Meissner (University of Ontario, Toronto, Canada); the EJM, LP-1, KMM1, K620, OPM-1, and OPM-2 cells were provided by Dr Leif Bergsagel; INA-6 cells were provided by Renate Burger (University of Erlangen-Nuernberg, Germany); XG-1 cells were obtained from Dr Pierfrancesco Tassone (University of Magna Grecia, Italy); NCI-H929 and U266 cells were purchased from American Type Cell Culture (ATCC); MM-1S-myrAkt and MM-1S-Bcl-2 cells were established by stable transfection of MM-1S cells with constructs encoding for constitutively active myristoylated form of Akt and for Bcl-2, respectively. […] Purity (>95%) was assessed by both morphology and flow cytometry (Becton-Dickinson FACSort, Franklin Lakes, N.J.). […]

MM-1S-Luc human MM cells = experiment: Model of diffuse skeletal MM lesions, bioluminescence imaging and survival; format: in vivo
Procedure: Briefly, male (6 to 8-week old) SCIDI/NOD mice (Jackson Laboratories, Bar Harbor, Me.) were sublethally irradiated (300 rads) using ^137CS γ-irradiator source. After 3-6 hours, 5×10^6 MM-1S-luc^+ cells in 100 μL of phosphate-buffered saline (PBS) was injected via the tail vein into each mouse. Mice were monitored daily for changes in their body weight, signs of infection, and paralysis, and weekly by whole-body bioluminescence imaging utilizing the In Vivo Imaging System (IVIS, Xenogen Corp, Alameda, Calif.) with total imaging time of 2 min, bin 2. Total body bioluminescence was quantified by integrating the photonic flux (photons/sec) through a standardized region of interest encompassing each mouse (Living Images, Xenogen). […] Melphalan (Alkeran, GlaxoSmithKline, Research Triangle Park, N.C.) was formulated according to manufacturer's instructions, and was administered by i.p. injection. All animal studies were approved by the Dana-Farber Cancer Institute Animal Care and Use Committee.
Statistical significance for in vitro assay results was examined by 2-way analysis of variance, followed by Duncan's post-hoc test. Statistical significance for bioluminescence imaging studies was determined by two-tailed student's t-test. In all analyses, P<0.05 was considered statistically significant. For assessment of in vivo anti-tumor activity, the overall survival of mice was defined as the time between i.v. injection of tumor cells and sacrifice or, death and was compared across different treatment groups with Kaplan-Meier survival analysis.
The in vivo anti-tumor activity of IGF-1R inhibition in a mouse xenograft model of MM was examined. The MM cell line MM-1S was engineered to stably express firefly luciferase fused to a selectable marker (neomycin phosphotransferase or enhanced GFP). Sub-lethally irradiated NOD/SCID mice were injected intravenously with MM-1S-Luc cells and tumor distribution was followed by serial whole-body non-invasive imaging of visible light emitted by luciferase-expressing tumor cells upon injection of mice with luciferin.
Sublethally irradiated NOD/SCID mice were injected with MM1S-Luc cells, and serially imaged to monitor tumor burden. After 2-3 weeks, cohorts of mice with similarly increasing tumor burden were divided into control and treatment groups.

[2] = tested on: SW579 papillary thyroid carcinoma cells; experiment: VEGF ELISA, IGF-1-stimulated thyroid carcinoma cells; format: cell-based, human; details: 750 nM; IGF-1 200 ng/mL in serum-free medium
Procedure: as §1

[3] = monotherapy 10 mg/kg i.p. twice daily

## Nc1ncnc2c1c(-c1cccc(OCc3ccccc3)c1)cn2[C@H]1C[C@H](CN2CCCC2)C1 [ADW-742, trans-5-(3-benzyloxy-phenyl)-7-(3-pyrrolidin-1-ylmethyl-cyclobutyl)-7H-pyrrolo[2,3-d]pyrimidin-4-ylamine]
[1]
  constitutive and co-culture-induced secretion of VEGF: suppresses
Primary MM tumor cells
  serum-induced growth of primary MM patient samples: completely suppresses
MM-1S-Luc human MM cells; 10 mg/kg i.p. twice daily
  treatment-related toxicity: no other significant treatment-related toxicity
MM-1S-Luc human MM cells; 10 mg/kg i.p. twice daily for 19 days, control 21 days, P=0.02 log-rank
  median overall survival: 38 days
MM-1S-Luc human MM cells; 10 mg/kg i.p. twice daily, 4 days per week, alone
  anti-tumor activity, pulsatile administration: no significant anti-tumor activity
MM-1S-Luc human MM cells; 10 mg/kg i.p. twice daily, between treatment groups, P=0.82
  body weight: no difference in body weight
MM-1S-Luc human MM cells; melphalan 2.5 mg i.p once a week followed by ADW-742 10 mg/kg i.p. twice daily, 4 days per week
  survival, combination with melphalan: synergistic effect in prolonging the survival of mice
MM-1S-Luc human MM cells; [3]
  survival of mice: prolongs the survival of mice
  tumor growth: significantly suppresses tumor growth
MM-1S-Luc human MM cells; second study same i.p. dosing, third study orally 50 mg/kg twice daily
  anti-tumor efficacy, further studies: Consistent results
[2]
  IGF-1-induced secretion of VEGF: suppresses

From patent publication US7781393B2, “Methods for inhibiting tumor cell growth” (Dana-Farber Cancer Institute, Inc., priority 2004, dated 2010)
